# Experimental data from US20030068615A1, “Polypeptides that bind HIV gp120 and related nucleic acids, antibodies, compositions, and methods of use” (priority 1999, published 2003).
# Several values for one entry are separate records, joined by “and”; a condition that tells them apart may be missing. Equal values may be shown once. Read-outs that look alike come from different tables or passages of the source.
# Target: HIV-1LAI envelope gp120 (Human immunodeficiency virus type 1 group M subtype B, UniProt P03377)
# Type: binding
# Conditions: for Counts per 20′ Average-background: CCR5 18-mer scan, radiolabeled HIV-1LAI gp120; for Relative % of Control: mean of two syntheses and binding experiments ± average deviation, wild-type = 100%; for Binding Results For Window Length (counts bound-background), 9: 9-mer starting at the first residue of the printed sequence; for Binding Results For Window Length (counts bound-background), 12: 12-mer starting at the first residue of the printed sequence; for Binding Results For Window Length (counts bound-background), 15: 15-mer starting at the first residue of the printed sequence; for number of radioactive decays (counts) counted: human CD4 21-mer scan, empty control 2075
# [1] = Panel B, 15-mers and 18-mers of CD4, empty control 575
# [2] = Panel D, 9-mers and 12-mers of CD4, empty control […]
# [3] = Panel G, alanine replacements and serial truncations (Z) of CD4 polypeptides, empty control 580
# [4] = STRL33 18-mer scan, background subtracted, first of two count columns
# [5] = STRL33 18-mer scan, background subtracted, second of two count columns
# [6] = Panel E, 9-mers and 12-mers of CD4, empty control 571
# [7] = STRL33 amino terminus, background subtracted
# [8] = Panel C, 15-mers and 18-mers of CD4, empty control 556
sequence,measurement,setting,value
KIEDSDTYICEVEDQKEE,COUNTS of radiolabeled gp120 retained,[1],858 counts
QKINVKQIAARLLPPLYS [CCR5 segment 21-38],Counts per 20′ Average-background,background subtracted,20 counts per 20′
MAGISIYTSDNYTEEMGS [CXCR4 (1-18) variant E2A],Relative % of Control,CXCR4 (1-18) alanine variants,36 ± 0.3%
TANSDTHLL,COUNTS of radiolabeled gp120 retained,[2],554 counts
VQLLVFGLTANS,COUNTS of radiolabeled gp120 retained,[2],747 counts
RNEKKRHRAVRLIFTIMI [CCR5 segment 225-],Counts per 20′ Average-background,background subtracted,23 counts per 20′
DTHLLQGQSLTL,COUNTS of radiolabeled gp120 retained,[2],527 counts
GEQVEFSFPLAFTVA,COUNTS of radiolabeled gp120 retained,[3],18371 counts and 18187 counts
QGNFPLIIK,COUNTS of radiolabeled gp120 retained,[2],508 counts
MDYQVASPIYDINYYTSE,Relative % of Control,CCR5 (1-18) alanine variants,124 ± 3%
MDYQASSPIYDINYYTSE [CCR5 (1-18) variant V5A],Relative % of Control,CCR5 (1-18) alanine variants,82 ± 3%
MDYQVSSPIYDINYYTSE,Counts per 20′ Average-background,background subtracted,735 counts per 20′
same,Relative % of Control,CCR5 (1-18) alanine variants,100%
GLHYTCSSEFPYSQYQFW,Counts per 20′ Average-background,background subtracted,301 counts per 20′
LTMIVCYSVIIKTLLHAG [STRL33 segment 205-222],radioactive counts recorded in twenty minutes,[4],2787.5 counts
same,radioactive counts recorded in twenty minutes,[5],2654.5 counts
KIDIVVLAF,COUNTS of radiolabeled gp120 retained,[6],665 counts
EKLTGSGELWWQ,COUNTS of radiolabeled gp120 retained,[6],543 counts
EHDYHEDYGFSSFNDSSQ,"Binding Results For Window Length (counts bound-background), 9",[7],509 counts
same,"Binding Results For Window Length (counts bound-background), 12",[7],937 counts
same,"Binding Results For Window Length (counts bound-background), 15",[7],2235 counts
same,"Binding Results For Window Length (counts bound-background), 18","STRL33 amino terminus, 18-mer starting at the first residue of the printed sequence, background subtracted",1219 counts
KIDIVVLAFQKASSI,COUNTS of radiolabeled gp120 retained,[8],956 counts
KIDIVVLAFQKASSIVYK,COUNTS of radiolabeled gp120 retained,[8],779 counts
LLVFGLTANSDTHLLQGQ,COUNTS of radiolabeled gp120 retained,[1],568 counts
KEGEQVEFS,COUNTS of radiolabeled gp120 retained,[6],595 counts
GQSLTLTLE,COUNTS of radiolabeled gp120 retained,[2],777 counts
GEQAEFSFPLAFTVE,COUNTS of radiolabeled gp120 retained,[3],14764 counts and 13000 counts
MAYQVSSPIYDINYYTSE [CCR5 (1-18) variant D2A],Relative % of Control,CCR5 (1-18) alanine variants,125 ± 8%
AYLRACLNPVLYAFVSLK [STRL33 segment 277-294],radioactive counts recorded in twenty minutes,[4],1802.5 counts
same,radioactive counts recorded in twenty minutes,[5],1849.5 counts
AISDLFFLLTVPFWAHYA [CCR5 segment 73-90],Counts per 20′ Average-background,background subtracted,41 counts per 20′
PLAFTVEKLTGSGEL,COUNTS of radiolabeled gp120 retained,[8],612 counts
NDSSQEEHQAFLQFS,"Binding Results For Window Length (counts bound-background), 9",[7],180 counts
same,"Binding Results For Window Length (counts bound-background), 12",[7],497 counts
same,"Binding Results For Window Length (counts bound-background), 15",[7],6160 counts
GQVLLESNIKVLPTWSTPVQP [human CD4 376-396],number of radioactive decays (counts) counted,,2089 counts
KIDIVVLAFQKA,COUNTS of radiolabeled gp120 retained,[6],689 counts
FTVEKLTGSGEL,COUNTS of radiolabeled gp120 retained,[6],530 counts
PLIIKNLKI,COUNTS of radiolabeled gp120 retained,[2],697 counts
AYNQQAKRMTWGKVTSLL [STRL33 segment 137-154],radioactive counts recorded in twenty minutes,[4],55.5 counts
same,radioactive counts recorded in twenty minutes,[5],4.5 counts
KVEFKIDIV,COUNTS of radiolabeled gp120 retained,[6],555 counts
TYICEVEDQKEE,COUNTS of radiolabeled gp120 retained,[2],818 counts
YAGSGNLTLALEAKTGKLHQE [human CD4 291-311],number of radioactive decays (counts) counted,,1830 counts
VTETLGMTHCCINPIIYA [CCR5 segment 281-],Counts per 20′ Average-background,background subtracted,15 counts per 20′
SDTYICEVEDQKEEVQLL,COUNTS of radiolabeled gp120 retained,[1],870 counts
AARLLPPLYSLVFIFGFV [CCR5 segment 29-46],Counts per 20′ Average-background,background subtracted,33 counts per 20′
NQKKVEFKIDIVVLAFQK,COUNTS of radiolabeled gp120 retained,[8],889 counts
MEGISIYTSDNYTAEMGS,Relative % of Control,CXCR4 (1-18) alanine variants,72 ± 1%
FKIDIVVLAFQK,COUNTS of radiolabeled gp120 retained,[6],736 counts
FKIDIVVLAFQKASS,COUNTS of radiolabeled gp120 retained,[8],1001 counts
QWDFGNTMCQLLTGLYFI [CCR5 segment 93-],Counts per 20′ Average-background,background subtracted,1019 counts per 20′
VLAFQKASS,COUNTS of radiolabeled gp120 retained,[6],466 counts
VLPTWSTPVQPMALIVLGGVA,number of radioactive decays (counts) counted,,2197 counts
MEGISIYTSDAYTEEMGS,Relative % of Control,CXCR4 (1-18) alanine variants,38 ± 0.4%
ADYQVSSPIYDINYYTSE [CCR5 (1-18) variant M1A],Relative % of Control,CCR5 (1-18) alanine variants,167 ± 4%
LVMGYQKKLRSMTDKYRL [CXCR4 segment 61-78],radioactive counts recorded in twenty minutes,"CXCR4 18-mer scan, background subtracted, empty control 0",105 counts
same,radioactive counts recorded in twenty minutes,"CXCR4 18-mer scan, empty control 412",517 counts
